Where only a bound is given, the exact number is not on record here.

Data on 26 molecules can be found in EP2257297B1, “COMPOUNDS FOR USE IN THE TREATMENT OF ACNE, SEBORRHOEA AND SEBHORROEIC DERMATITIS, OR FOR REDUCING SEBUM SECRETION” (priority 2008, dated 2009).

T1 sequence (P33032 whole entry): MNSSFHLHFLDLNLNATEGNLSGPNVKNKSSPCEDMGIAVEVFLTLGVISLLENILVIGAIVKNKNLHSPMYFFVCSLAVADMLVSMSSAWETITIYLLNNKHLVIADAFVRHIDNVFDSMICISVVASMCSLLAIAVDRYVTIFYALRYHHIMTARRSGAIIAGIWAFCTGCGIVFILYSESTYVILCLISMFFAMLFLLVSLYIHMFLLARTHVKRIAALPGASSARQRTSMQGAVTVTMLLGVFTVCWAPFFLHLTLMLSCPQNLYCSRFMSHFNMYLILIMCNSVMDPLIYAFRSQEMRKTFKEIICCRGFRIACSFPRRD

The assay concerns the target T1, human MC5R (Homo sapiens, UniProt P33032).
T1 construct: purchased Perkin Elmer RBXMC5M400UA
Description: Human MC5R radioligand binding assay ([125I] NDP-MSH displacement, hMC5R membranes). The note with it: hMC5R assay as in Example 102; compounds tested as trifluoroacetate or hydrochloride salts, or as free base. The protocol:
After incubation for 10 mins the phosphate buffer containing the iodine was added to NDP-MSH (10 ul at 1 mg/mL) in a separate eppendorf tube. This was incubated for a further 10 mins.
Resuspended membranes were kept on ice until they were added to the wells of the plate.
Assays were performed in 96 well polypropylene plates. […] This was incubated for 1 hr at 37 °C. Non-specific binding was determined with […] NDP-MSH. Plates were filtered using a Tomtec cell harvester with GF/A filters (Wallac) (presoaked in 0.6% polyethylenimine) and washed three times with 1.0 mL ice-cold wash buffer (the above incubation buffer without 1,10-phenanthroline and Complete™ protease inhibitor tablet). The filters were dried in a 37 °C oven, placed in a sample bag and 5 mL Betaplatescint (Wallac) was added. Prepared filters were counted in cassettes in a Microbeta Trilux (Wallac) for 1 min. […] Data analysis was performed using GraphPad Prism 4, employing competition binding with a single site model and a fixed Hill coefficient. The following equation was used: Y = Bottom + (Top-Bottom)/1/10^(X-logEC50), where X = log(concentration) and Y = binding to fit the data.
What is called IC50 is the concentration needed to halve the response being measured. `N=C(N)NCCC[C@@H]1N[C@H](CNC(=O)Cc2ccc(Cl)c(Cl)c2)CCN(CC(c2ccccc2)c2ccccc2)C1=O` [Compound 157, 2-(3,4-dichlorophenyl)-N-(((3S,5S)-1-(2,2-diphenylethyl)-3-(3-guanidinopropyl)-2-oxo-1,4-diazepan-5-yl)methyl)acetamide]: the IC50 was less than 10 µM.

As for `COc1ccc2cc(C(=O)NC[C@@H]3CCN(CC(c4ccccc4)c4ccccc4)C(=O)[C@H](CCCNC(=N)N)N3)ccc2c1` [Compound 158, N-(((3S,5S)-1-(2,2-diphenylethyl)-3-(3-guanidinopropyl)-2-oxo-1,4-diazepan-5-yl)methyl)-6-methoxy-2-naphthamide], the IC50 was less than 0.1 µM.

Turning to `N=C(N)NCCC[C@@H]1N[C@H](CNC(=O)/C=C/c2ccc(Cl)cc2Cl)CCN(CC(c2ccccc2)c2ccccc2)C1=O` [Compound 160, (E)-3-(2,4-dichlorophenyl)-N-(((3S,5S)-1-(2,2-diphenylethyl)-3-(3-guanidino-propyl)-2-oxo-1,4-diazepan-5-yl)methyl)acrylamide], the IC50 is less than 0.1 µM.

Turning to `N=C(N)NCCC[C@@H]1N[C@H](CNC(=O)C23CC4CC(CC(C4)C2)C3)CCN(CC(c2ccccc2)c2ccccc2)C1=O` [Compound 161, N-(((3S,5S)-1-(2,2-diphenylethyl)-3-(3-guanidinopropyl)-2-oxo-1,4-diazepan-5-yl)methyl)-adamantane-1-carboxamide], the IC50 is less than 10 µM.

Consider `N=C(N)NCCC[C@@H]1N[C@H](CNC(=O)COc2ccccc2)CCN(CC(c2ccccc2)c2ccccc2)C1=O` [Compound 162, N-(((3S,5S)-1-(2,2-diphenylethyl)-3-(3-guanidinopropyl)-2-oxo-1,4-diazepan-5-yl)methyl)-2-phenoxyacetamide], for which the IC50 was less than 10 µM.

In the case of `COc1cc2ccccc2cc1C(=O)NC[C@@H]1CCN(CC(c2ccccc2)c2ccccc2)C(=O)[C@H](CCCNC(=N)N)N1` [Compound 163, N-(((3S,5S)-1-(2,2-diphenylethyl)-3-(3-guanidinopropyl)-2-oxo-1,4-diazepan-5-yl)methyl)-3-methoxy-2-naphthamide], the IC50 was less than 1 µM.

`N=C(N)NCCC[C@@H]1N[C@H](CNC(=O)c2ccc(Br)cc2)CCN(CC(c2ccccc2)c2ccccc2)C1=O` [Compound 164, 4-bromo-N-(((3S,5S)-1-(2,2-diphenylethyl)-3-(3-guanidinopropyl)-2-oxo-1,4-diazepan-5-yl)methyl)benzamide]: the IC50 was less than 1 µM.

Regarding `N=C(N)NCCC[C@@H]1N[C@H](CNC(=O)[C@@H]2COc3ccccc3O2)CCN(CC(c2ccccc2)c2ccccc2)C1=O` [Compound 165, (S)-N-(((3S,5S)-1-(2,2-diphenylethyl)-3-(3-guanidinopropyl)-2-oxo-1,4-diazepan-5-yl)methyl)-2,3-dihydrobenzo[b][1,4]dioxine-2-carboxamide], the IC50 was less than 1 µM.

In the case of `N=C(N)NCCC[C@@H]1N[C@H](CNC(=O)/C=C/c2cccs2)CCN(CC(c2ccccc2)c2ccccc2)C1=O` [Compound 167, (E)-N-(((3S,5S)-1-(2,2-diphenylethyl)-3-(3-guanidinopropyl)-2-oxo-1,4-diazepan-5-yl)methyl)-3-(thiophen-2-yl)acrylamide], the IC50 was less than 0.1 µM.

Regarding `N=C(N)NCCC[C@@H]1N[C@H](CNC(=O)[C@H]2COc3ccccc3O2)CCN(CC(c2ccccc2)c2ccccc2)C1=O` [Compound 168, (R)-N-(((3S,5S)-1-(2,2-diphenylethyl)-3-(3-guanidinopropyl)-2-oxo-1,4-diazepan-5-yl)methyl)-2,3-dihydrobenzo[b][1,4]dioxine-2-carboxamide], the IC50 was less than 1 µM.

Take `N=C(N)NCCC[C@@H]1N[C@H](CNC(=O)/C=C/c2ccc(O)cc2)CCN(CC(c2ccccc2)c2ccccc2)C1=O` [Compound 169, (E)-N-(((3S,5S)-1-(2,2-diphenylethyl)-3-(3-guanidinopropyl)-2-oxo-1,4-diazepan-5-yl)methyl)-3-(4-hydroxyphenyl)acrylamide]: the IC50 is less than 1 µM.

In the case of `Cc1ccc(/C=C/C(=O)NC[C@@H]2CCN(CC(c3ccccc3)c3ccccc3)C(=O)[C@H](CCCNC(=N)N)N2)cc1` [Compound 171, (E)-N-(((3S,5S)-1-(2,2-diphenylethyl)-3-(3-guanidinopropyl)-2-oxo-1,4-diazepan-5-yl)methyl)-3-p-tolylacrylamide], the IC50 was less than 0.1 µM.

In the case of `N=C(N)NCCC[C@@H]1N[C@H](CNC(=O)/C=C/c2ccccc2C(F)(F)F)CCN(CC(c2ccccc2)c2ccccc2)C1=O` [Compound 172, (E)-N-(((3S,5S)-1-(2,2-diphenylethyl)-3-(3-guanidinopropyl)-2-oxo-1,4-diazepan-5-yl)methyl)-3-(2-(trifluoromethyl)phenyl)acrylamide], the IC50 is less than 1 µM.

Regarding `N=C(N)NCCC[C@@H]1N[C@H](CNC(=O)/C=C/c2cccc(F)c2)CCN(CC(c2ccccc2)c2ccccc2)C1=O` [Compound 173, (E)-N-(((3S,5S)-1-(2,2-diphenylethyl)-3-(3-guanidinopropyl)-2-oxo-1,4-diazepan-5-yl)methyl)-3-(3-fluorophenyl)acrylamide], the IC50 is less than 0.1 µM.

As to `N=C(N)NCCC[C@@H]1N[C@H](CNC(=O)COc2ccc(Cl)cc2Cl)CCN(CC(c2ccccc2)c2ccccc2)C1=O` [Compound 176, 2-(2,4-dichlorophenoxy)-N-(((3S,5S)-1-(2,2-diphenylethyl)-3-(3-guanidinopropyl)-2-oxo-1,4-diazepan-5-yl)methyl)acetamide], the half-maximal inhibitory concentration (IC50) is less than 0.1 µM.

Consider `N=C(N)NCCC[C@@H]1N[C@H](CNC(=O)/C=C/c2cccc(Cl)c2)CCN(CC(c2ccccc2)c2ccccc2)C1=O` [Compound 177, (E)-3-(3-chlorophenyl)-N-(((3S,5S)-1-(2,2-diphenylethyl)-3-(3-guanidinopropyl)-2-oxo-1,4-diazepan-5-yl)methyl)acrylamide], for which the IC50 was less than 0.1 µM.

In the case of `N=C(N)NCCC[C@@H]1N[C@H](CNC(=O)c2ccc3ncsc3c2)CCN(CC(c2ccccc2)c2ccccc2)C1=O` [Compound 178, N-(((3S,5S)-1-(2,2-diphenylethyl)-3-(3-guanidinopropyl)-2-oxo-1,4-diazepan-5-yl)methyl)benzo[d]thiazole-6-carboxamide], the concentration for half-maximal inhibition (IC50) is less than 1 µM.

Take `N=C(N)NCCC[C@@H]1N[C@H](CNC(=O)c2ccc(-c3ccccc3)o2)CCN(CC(c2ccccc2)c2ccccc2)C1=O` [Compound 179, N-(((3S,5S)-1-(2,2-diphenylethyl)-3-(3-guanidinopropyl)-2-oxo-1,4-diazepan-5-yl)methyl)-5-phenylfuran-2-carboxamide]: the IC50 was less than 1 µM.

Take `COc1cccc(/C=C/C(=O)NC[C@@H]2CCN(CC(c3ccccc3)c3ccccc3)C(=O)[C@H](CCCNC(=N)N)N2)c1` [Compound 180, (E)-N-(((3S,5S)-1-(2,2-diphenylethyl)-3-(3-guanidinopropyl)-2-oxo-1,4-diazepan-5-yl)methyl)-3-(3-methoxyphenyl)acrylamide]: the IC50 was less than 1 µM.

For `N=C(N)NCCC[C@@H]1N[C@H](CNC(=O)c2ccc3cc(Br)ccc3c2)CCN(CC(c2ccccc2)c2ccccc2)C1=O` [Compound 181, 6-bromo-N-(((3S,5S)-1-(2,2-diphenylethyl)-3-(3-guanidinopropyl)-2-oxo-1,4-diazepan-5-yl)methyl)-2-naphthamide], the 50% inhibitory concentration (IC50) was less than 0.01 µM.

As to `N=C(N)NCCC[C@@H]1N[C@H](CNC(=O)c2ccc3ccccc3c2)CCN(CCc2ccccc2)C1=O` [Compound 182, N-(((3S,5S)-3-(3-guanidinopropyl)-2-oxo-1-phenethyl-1,4-diazepan-5-yl)methyl)-2-naphthamide], the IC50 was less than 1 µM.

Consider `N=C(N)NCCC[C@@H]1N[C@H](CNC(=O)c2ccc3sccc3c2)CCN(CC(c2ccccc2)c2ccccc2)C1=O` [Compound 185, N-(((3S,5S)-1-(2,2-diphenylethyl)-3-(3-guanidinopropyl)-2-oxo-1,4-diazepan-5-yl)methyl)benzo[b]thiophene-5-carboxamide], for which the IC50 was less than 0.1 µM.

Consider `Cc1c(C(=O)NC[C@@H]2CCN(CC(c3ccccc3)c3ccccc3)C(=O)[C@H](CCCNC(=N)N)N2)cnn1-c1ccccc1` [Compound 186, N-(((3S,5S)-1-(2,2-diphenylethyl)-3-(3-guanidinopropyl)-2-oxo-1,4-diazepan-5-yl)methyl)-5-methyl-1-phenyl-1H-pyrazole-4-carboxamide], for which the IC50 was less than 0.1 µM.

In the case of `COc1ccc(/C=C/C(=O)NC[C@@H]2CCN(CC(c3ccccc3)c3ccccc3)C(=O)[C@H](CCCNC(=N)N)N2)cc1` [Compound 187, (E)-N-(((3S,5S)-1-(2,2-diphenylethyl)-3-(3-guanidinopropyl)-2-oxo-1,4-diazepan-5-yl)methyl)-3-(4-methoxyphenyl)acrylamide], the IC50 was less than 0.1 µM.

Regarding `N=C(N)NCCC[C@@H]1N[C@H](CNC(=O)c2ccc3cc(F)ccc3c2)CCN(CC(c2ccccc2)c2ccccc2)C1=O` [Compound 188, N-(((3S,5S)-1-(2,2-diphenylethyl)-3-(3-guanidinopropyl)-2-oxo-1,4-diazepan-5-yl)methyl)-6-fluoro-2-naphthamide], the IC50 was less than 0.1 µM.

In the case of `N=C(N)NCCC[C@@H]1N[C@H](CNC(=O)/C=C/c2ccccc2Cl)CCN(CC(c2ccccc2)c2ccccc2)C1=O` [Compound 189, (E)-3-(2-chlorophenyl)-N-(((3S,5S)-1-(2,2-diphenylethyl)-3-(3-guanidinopropyl)-2-oxo-1,4-diazepan-5-yl)methyl)acrylamide], the IC50 is less than 1 µM.
